Results from PubChem BioAssay AID1845211 (Molecular Pharmacology Branch, DTP, NCI, 2023).
pIC50: −log10 of the molar value.

Test system: NCI-H322M multicellular tumor spheroids, viability (% test/control)
Test: Anticancer human tumor NCI-H322M cell line growth inhibition;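 for viability, T/C: spheroids exposed to compound for seven days before readout; 100% = DMSO vehicle control wells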
Details: for pIC50: curve of first compound; for viability, T/C: stronger effect = lower value
Outline: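 Complex tumor spheroids combined malignant cells with endothelial cells and mesenchymal stem cells. DNA-damaging drugs and DNA repair inhibitors were tested alone and in combination, at half-log dilutions down from clinical Cmax (top 10 microM if Cmax unknown), 0.25% DMSO final.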

[1] = second compound 1 µM, first compound 0.0316 µM
[2] = second compound 1 µM, first compound 0.1 µM
[3] = second compound 1 µM, first compound 0.316 µM
[4] = second compound 1 µM, first compound 1 µM
[5] = second compound 1 µM, first compound 3.16 µM
[6] = second compound 1 µM, first compound 10 µM
[7] = second compound 3.16 µM, first compound 0.0316 µM
[8] = second compound 3.16 µM, first compound 0.1 µM
[9] = second compound 3.16 µM, first compound 0.316 µM
[10] = second compound 3.16 µM, first compound 1 µM
[11] = second compound 3.16 µM, first compound 3.16 µM
[12] = second compound 3.16 µM, first compound 10 µM
[13] = second compound 10 µM, first compound 0.0316 µM
[14] = second compound 10 µM, first compound 0.1 µM
[15] = second compound 10 µM, first compound 0.316 µM
[16] = second compound 10 µM, first compound 1 µM
[17] = second compound 10 µM, first compound 3.16 µM
[18] = second compound 10 µM, first compound 10 µM
[19] = second compound 31.6 µM, first compound 0.0316 µM
[20] = second compound 31.6 µM, first compound 0.1 µM
[21] = second compound 31.6 µM, first compound 0.316 µM
[22] = second compound 31.6 µM, first compound 1 µM
[23] = second compound 31.6 µM, first compound 3.16 µM
[24] = second compound 31.6 µM, first compound 10 µM
[25] = second compound 100 µM, first compound 0.0316 µM
[26] = second compound 100 µM, first compound 0.1 µM
[27] = second compound 100 µM, first compound 0.316 µM
[28] = second compound 100 µM, first compound 1 µM
[29] = second compound 100 µM, first compound 3.16 µM
[30] = second compound 100 µM, first compound 10 µM

Structure (SMILES) | pIC50 (second compound 1 µM) | pIC50 (second compound 3.16 µM) | pIC50 (second compound 10 µM) | pIC50 (second compound 31.6 µM) | pIC50 (second compound 100 µM) | viability, T/C [1] [%] | viability, T/C [2] [%] | viability, T/C [3] [%] | viability, T/C [4] [%] | viability, T/C [5] [%] | viability, T/C [6] [%] | viability, T/C [7] [%] | viability, T/C [8] [%] | viability, T/C [9] [%] | viability, T/C [10] [%] | viability, T/C [11] [%] | viability, T/C [12] [%] | viability, T/C [13] [%] | viability, T/C [14] [%] | viability, T/C [15] [%] | further results
CC(C)n1c(=O)n(C)c2cnc3cc(F)c(-c4ccc(OCCCN5CCCCC5)nc4)cc3c21 + Cn1nnc2c(C(N)=O)ncn2c1=O | < 5.00 | < 5.00 | < 5.00 | < 5.00 | < 5.00 | 86.7 | 82.1 | 85 | 95.4 | 92 | 77.9 | 83.8 | 70.6 | 83.1 | 78.7 | 81.3 | 82.5 | 76.8 | 84.7 | 89.4 | viability, T/C [16]: 98.5%; viability, T/C [17]: 96.4%; viability, T/C [18]: 79.1%; viability, T/C [19]: 94.9%; viability, T/C [20]: 74.8%; viability, T/C [21]: 81.9%; viability, T/C [22]: 85.2%; viability, T/C [23]: 98.2%; viability, T/C [24]: 84.7%; viability, T/C [25]: 85%; viability, T/C [26]: 93.4%; viability, T/C [27]: 82.1%; viability, T/C [28]: 88.5%; viability, T/C [29]: 83%; viability, T/C [30]: 87%
CC1COCCN1c1cc(-c2ccnn2C)c2ccnc(-c3ccn[nH]3)c2n1 (stereo not given) + Cn1nnc2c(C(N)=O)ncn2c1=O | 6.89 | 6.81 | 7.10 | > 7.50 | > 7.50 | 66.3 | 54.4 | 43.5 | 37.4 | 41.5 | 48.5 | 63 | 55.1 | 42.3 | 34.1 | 37.7 | 40.8 | 72.2 | 44.5 | 45.4 | viability, T/C [16]: 37.3%; viability, T/C [17]: 40.6%; viability, T/C [18]: 50%; viability, T/C [19]: 56.1%; viability, T/C [20]: 43%; viability, T/C [21]: 37.1%; viability, T/C [22]: 36.6%; viability, T/C [23]: 35.9%; viability, T/C [24]: 41.4%; viability, T/C [25]: 41.1%; viability, T/C [26]: 34.8%; viability, T/C [27]: 31.7%; viability, T/C [28]: 32%; viability, T/C [29]: 35.4%; viability, T/C [30]: 40.6%
COc1ccc([C@@H](O)c2cc(-c3ncnc4cc(N5CCOCC5)ccc34)c(F)cc2Cl)nn1 + Cn1nnc2c(C(N)=O)ncn2c1=O | 5.43 | 5.85 | 5.69 | 5.70 | 5.72 | 86 | 77.2 | 85.8 | 55.5 | 57.1 | 35.4 | 78.2 | 80.8 | 81.2 | 52.9 | 50.1 | 35.8 | 105 | 76.9 | 68.2 | viability, T/C [16]: 61.2%; viability, T/C [17]: 46.8%; viability, T/C [18]: 35.3%; viability, T/C [19]: 83.6%; viability, T/C [20]: 94.6%; viability, T/C [21]: 65.7%; viability, T/C [22]: 58.9%; viability, T/C [23]: 47.9%; viability, T/C [24]: 39.5%; viability, T/C [25]: 80.7%; viability, T/C [26]: 75.5%; viability, T/C [27]: 82.7%; viability, T/C [28]: 58.6%; viability, T/C [29]: 44.8%; viability, T/C [30]: 34.4%
